Data from ChEMBL document CHEMBL1142161, “Hepatitis C virus (HCV) NS5B nonnucleoside inhibitors specifically block single-stranded viral RNA synthesis catalyzed by HCV replication complexes in vitro” (Antimicrob Agents Chemother, 2007).
The source made the active and inactive calls. The calls are words filed in the database; no cut-off is given here.

Experiments:
[1] = species: Homo sapiens; assay: (§1) Inhibition of replication in Huh-9-13 cells containing Wild type HCV replicons after 72 hrs; format: functional, cell-based
[2] = tested on: Hepacivirus hominis; assay: Inhibition of HCV ssRNA synthesis by crude replicase complexes prepared from Huh-9-13 cells; format: functional
[3] = Inhibition of replication in M414T cells containing mutant HCV replicons after 72 hrs; format: functional, cell-based, Homo sapiens
[4] = as §1; format: functional, cell-based; details: Homo sapiens

SMILES	Activity [1]	Activity [2]	EC50 [3]	EC50 [4]
O=C(N[C@@H](Cc1c[nH]c2ccccc12)C(=O)O)c1ccc2c(c1)nc(-c1ccoc1)n2C1CCCCC1	inactive	Dose-dependent effect	–	–
CC(C)CCn1c(=O)c(C2=NS(=O)(=O)c3ccccc3N2)c(O)c2ccccc21	–	Dose-dependent effect	> 31600 nM	900 nM
